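All cell lines were grown in 96-well plates and treated with compound for 48 hours. At the GI50, growth is halved.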 Calls of active or inactive are those of the source. No stated cut-off is given here; in the data, active = GI50 up to about 1.1 µM and inactive = higher.
Assays:
Experiment in all cases: NCI-60 cell line screen, 48 h
A498 = tested on: A498
ACHN = tested on: ACHN
CCRF-CEM = tested on: CCRF-CEM
EKVX = tested on: EKVX
HCT-15 = tested on: HCT-15
HT-29 = tested on: HT-29
IGROV-1 = tested on: IGROV-1
LOX IMVI = tested on: LOX IMVI
M14 = tested on: M14
MDA-MB-435 = tested on: MDA-MB-435
NCI-H23 = tested on: NCI-H23
NCI-H522 = tested on: NCI-H522
NCI/ADR-RES = tested on: NCI/ADR-RES
OVCAR-8 = tested on: OVCAR-8
RPMI-8226 = tested on: RPMI-8226
RXF 393 = tested on: RXF 393
SF-268 = tested on: SF-268
SK-OV-3 = tested on: SK-OV-3
SW-620 = tested on: SW-620

SMILES | GI50 (A498) | GI50 (ACHN) | GI50 (CCRF-CEM) | GI50 (EKVX) | GI50 (HCT-15) | GI50 (HT-29) | GI50 (IGROV-1) | GI50 (LOX IMVI) | GI50 (M14) | GI50 (MDA-MB-435) | GI50 (NCI-H23) | GI50 (NCI-H522) | GI50 (NCI/ADR-RES) | GI50 (OVCAR-8) | GI50 (RPMI-8226) | GI50 (RXF 393) | GI50 (SF-268) | GI50 (SK-OV-3) | GI50 (SW-620)
CSC(=S)OC1C(CO[Si](C)(C)C(C)(C)C)OC2OC(C)(C)OC21 (stereo unspecified) | 21.8 µM (inactive) | 17.1 µM (inactive) | 16.7 µM (inactive) | 20.3 µM (inactive) | 18.4 µM | 11.4 µM (inactive) | 18.3 µM (inactive) | 15.7 µM (inactive) | 47 µM (inactive) | 33.2 µM (inactive) | 19.9 µM (inactive) | 15.8 µM (inactive) | 14.7 µM (inactive) | 27.3 µM (inactive) | 16.3 µM (inactive) | 20.6 µM (inactive) | 15.2 µM (inactive) | 20.2 µM (inactive) | 17.3 µM (inactive)
Cc1cc(O)c(C(C)C)cc1C(=S)Nc1ccc(Cl)cc1 | 15.1 µM (inactive) | 13 µM (inactive) | 3.66 µM (inactive) | 12.7 µM (inactive) | 10.7 µM | 14.8 µM (inactive) | 3.32 µM (inactive) | 11.2 µM (inactive) | – | 10.6 µM (inactive) | 5.93 µM (inactive) | 5.61 µM (inactive) | 12.9 µM (inactive) | 10.6 µM (inactive) | 8.3 µM (inactive) | – | 7 µM (inactive) | 21.9 µM (inactive) | 14.3 µM (inactive)
O=C1Oc2ccccc2N/C1=C/C(=O)c1ccc([N+](=O)[O-])cc1 | > 100 µM (inactive) | > 100 µM (inactive) | 61 µM (inactive) | > 100 µM (inactive) | > 100 µM | > 100 µM (inactive) | > 100 µM (inactive) | – | > 100 µM (inactive) | > 100 µM (inactive) | > 100 µM (inactive) | 23 µM (inactive) | > 100 µM (inactive) | > 100 µM (inactive) | – | > 100 µM (inactive) | > 100 µM (inactive) | > 100 µM (inactive) | –
COC(=O)c1cc(OS(=O)(=O)C(F)(F)F)c(=O)n2c1CCCC2 | > 100 µM (inactive) | > 100 µM (inactive) | > 100 µM (inactive) | > 100 µM (inactive) | > 100 µM | > 100 µM (inactive) | > 100 µM (inactive) | > 100 µM (inactive) | > 100 µM (inactive) | > 100 µM (inactive) | > 100 µM (inactive) | > 100 µM (inactive) | > 100 µM (inactive) | > 100 µM (inactive) | – | > 100 µM (inactive) | > 100 µM (inactive) | > 100 µM (inactive) | > 100 µM (inactive)
CCOc1ccc2nc(-c3ccc(O)cc3)sc2c1 | 30.4 µM (inactive) | 61.2 µM (inactive) | – | 10.3 µM (inactive) | 97.3 µM | 46.6 µM (inactive) | > 100 µM (inactive) | > 100 µM (inactive) | > 100 µM (inactive) | > 100 µM (inactive) | 23.5 µM (inactive) | 4.82 µM (inactive) | > 100 µM (inactive) | 48.6 µM (inactive) | 0.106 µM (active) | 37 µM (inactive) | 19.6 µM (inactive) | 24.2 µM (inactive) | > 100 µM (inactive)
Cc1ccc(Cc2nn(C)c(=O)n2-n2cccc2)cc1 | > 100 µM (inactive) | > 100 µM (inactive) | > 100 µM (inactive) | > 100 µM (inactive) | > 100 µM | > 100 µM (inactive) | > 100 µM (inactive) | > 100 µM (inactive) | > 100 µM (inactive) | > 100 µM (inactive) | – | > 100 µM (inactive) | > 100 µM (inactive) | > 100 µM (inactive) | > 100 µM (inactive) | > 100 µM (inactive) | > 100 µM (inactive) | > 100 µM (inactive) | > 100 µM (inactive)

From ChEMBL document CHEMBL1201862, “PubChem BioAssay data set” (2004)
